Columns and labels:
P. falciparum = details: cited from earlier work

## [H]/N=C(\N/C(=N/[H])NCCCCCCNC(=N)NC(=N)Nc1ccc(Cl)cc1)Nc1ccc(Cl)cc1 [Chlorhexidine]
Cultured fibroblasts
  Reversibility of effect on cultured fibroblasts (cell viability and protein quantification): damage the cells irreversibly
Cultured fibroblasts; 0.001 %
  Cytotoxicity (cell viability): cytotoxic even at 0.001%

## CC(=O)O[C@@H]1C[C@H]2C(C)(C)C(=O)CC[C@]2(C)[C@H]2CC[C@@]3(C)[C@H](c4ccoc4)OC(=O)[C@H]4O[C@]43[C@@]21C [dihydrogedunin]
P. falciparum
  LC50 against P. falciparum: 0.72 to 1.74 µg/mL

## CC(=O)O[C@@H]1C[C@H]2C(C)(C)C(=O)C=C[C@]2(C)[C@H]2CC[C@@]3(C)[C@H](c4ccoc4)C(=O)[C@H]4O[C@]43[C@@]21C [nimbinin]
P. falciparum
  LC50 against P. falciparum: 0.72 to 1.74 µg/mL
